Like-named read-outs stand apart in the source and are kept apart here.
Columns and labels:
[1] = DPPH radical scavenging assay; assay type: biochemical
Experimental: Likewise, L-ASA, the 1,2,3-triazole L-ASA derivatives with free C2-OH and C3-OH groups were expected to be potent antioxidants. Therefore, they were tested as radical scavengers by reaction with the stable free radical 2,2-diphenyl-1-picrylhydrazyl (DPPH^•).
Antioxidant capacity of selected compounds was assessed by 2,2-diphenyl-1-picrylhydrazyl assay (DPPH, Sigma Aldrich, Darmstadt, Germany), in which the antioxidant activity of compounds is measured by the reaction between a stable radical of 1,1-diphenyl-2-picylhydrazil (DPPH^•) and a selected compound according to the manufacturer recommendations. Briefly, compounds 4b–4e, 4f–4h, 4k, 4l, 4o, 4p–4s, 4t, 4v, 7c–7f, 7i–7n, 7q, 7p, and 7o were tested at 0.06, 0.12, 0.18, 0.23, 0.25, and 0.28 mM. L-ascorbic acid was used as the reference compound. Absorbance was measured 5 and 10 min after incubation of the compounds with the DPPH reagent. The reduction of DPPH with selected compounds was monitored by measuring the absorbance at a wavelength of 517 nm on the monochromator (Infinite M200 PRO, TECAN, Männedorf, Switzerland).

[2] = tested on: A549 (lung adenocarcinoma); test: MTT proliferation assay, A549; assay type: cell-based; conditions: Homo sapiens, 72 h
Experimental: (§1) Human tumor cell lines HeLa (cervical carcinoma), SW620 (colorectal adenocarcinoma, metastatic), A549 (lung adenocarcinoma), MCF−7 (breast adenocarcinoma), CFPAC-1 (pancreatic adenocarcinoma, metastatic), HCT-116 (colorectal carcinoma), and HepG2 (hepatocellular carcinoma), and normal cell lines HFF-1 (foreskin fibroblasts) and WI-38 (immortalized human lung fibroblast), were from the US American Type Culture Collection (ATCC, Manassas, VA, USA). Cells were cultured in a liquid nutrient medium (Dulbecco’s Modified Eagle Medium, LONZA, Basel, Switzerland) supplemented with 10% fetal bovine serum (FBS, Gibco, Grand Island, NY, USA), 2 mM L-glutamine (GIBCO, Grand Island, NY, USA), 100 μg/mL penicillin, and 100 μg/mL streptomycin (LONZA, Basel, Switzerland), in an incubator (NÜVE, Ankara, Turkey), at a humid atmosphere with 5% CO2 at 37 °C. Trypsin/EDTA Solution (Lonza, Basel, Switzerland), was used for cell passaging and cell detachment.
(§2) Adherent cells were seeded on 96 well microtiter plates (Falcon, New York, NY, USA) at a seeding density of 5000 cells per well, added in 150 μL of cell suspension in a nutrient medium. 24 h after seeding, cells were treated with compound 4b–4g, 4i, 4k–4t, 4v, 7c–7g, and 7i–7q dilutions in the range of 0.01 μM to 100 μM. L-ascoric acid (Sigma Aldrich, Darmstadt, Germany) and Carboxyamidotriazole (Sigma Aldrich, Darmstadt, Germany) were used as control compounds. Incubation of the cells with the compounds were performed for 72 h in a 5% CO2, in humid atmosphere at 37 °C. After incubation, nutrient medium was removed and 40 μL of the MTT reagent ([…]-2,5-diphenyltetrazole bromide (Invitrogen, Carlsbad, CA, USA) was added to each well. 3 h after incubation, 160 μL of DMSO (VWR CHEMICALS, Radnor, PA, USA) were added to each well to dissolve the crystals of purple formazane. The absorbance was measured at 570 nm (TECAN SUNRISE Microtiter plate reader (Männedorf, Switzerland). The experimentally measured optical densities (OD) were converted to the PG (percentage of growth), using the formulas according to the protocol assumed by NIH (National Institute of Health). The IC50 values (concentration causing 50% cell growth inhibition) for each compound were calculated by regression analysis of the survival count curve of the concentrations of the tested compounds. The results were processed in Excel 2010 (Microsoft, Redmond, WA, USA).

[3] = tested on: CFPAC-1 (ductal pancreatic adenocarcinoma); test: MTT proliferation assay, CFPAC-1; assay type: cell-based; conditions: Homo sapiens, 72 h
Experimental: as §1, §2

[4] = tested on: HCT-116 (colorectal carcinoma); test: MTT proliferation assay, HCT-116; assay type: cell-based; conditions: Homo sapiens, 72 h
Experimental: as §1, §2

[5] = tested on: HeLa (cervical carcinoma); test: MTT proliferation assay, HeLa; assay type: cell-based; conditions: Homo sapiens, 72 h
Experimental: as §1, §2

[6] = tested on: HepG2 (hepatocellular carcinoma); test: MTT proliferation assay, HepG2; assay type: cell-based; conditions: Homo sapiens, 72 h
Experimental: as §1, §2

[7] = tested on: MCF-7 (breast adenocarcinoma); test: MTT proliferation assay, MCF-7; assay type: cell-based, Human; conditions: Homo sapiens, MCF7; 72 h, MTT
Experimental: as §1, §2

[8] = tested on: SW620 (colorectal adenocarcinoma, metastatic); test: MTT proliferation assay, SW620; assay type: cell-based; conditions: Homo sapiens, SW-620, 72 h
Experimental: as §1, §2

WI-38 (lung fibroblasts) = test: MTT proliferation assay, WI-38; assay type: cell-based; conditions: Homo sapiens, 72 h, normal lung fibroblasts
Experimental: as §1, §2

[9] = tested on: HFF-1 (foreskin fibroblasts); test: MTT proliferation assay, HFF-1; assay type: cell-based; conditions: Homo sapiens, 72 h, normal foreskin fibroblasts
Experimental: as §1, §2

[10] = tested on: tested cell lines (A549, CFPAC-1, HCT-116, HeLa, HepG2, MCF-7, SW620, WI-38, HFF-1); test: MTT proliferation assay, whole tested cell panel; assay type: cell-based, Human; conditions: 0.01 µM to 100 µM, 72 h
Experimental: The C-6 substituted 1,2,3-triazole derivatives of L-ASA within the C5-OH group ([…], 4i, 4k−4t, and 4v) and with the C4=C5 double bond (7c−7g and 7i−7q) were evaluated against seven malignant tumor cell lines: lung adenocarcinoma (A549), ductal pancreatic adenocarcinoma (CFPAC-1), colorectal carcinoma (HCT-116), cervical carcinoma (HeLa), hepatocellular carcinoma (HepG2), breast adenocarcinoma (MCF-7), colorectal adenocarcinoma, and metastatic (SW620); as well as normal cell lines: lung fibroblasts (WI-38) and foreskin fibroblasts (HFF-1) (Table 3, Table S1, Supplementary Information). L-ASA was used as a positive control, and carboxyamidotriazole, a known antiproliferative agent that inhibits tumor cell growth, invasion, and metastasis, and 5-fluorouracil (5-FU), were used as reference compounds.
as §1, §2

[11] = 5 min treatment, read-out: IC50 of DPPH• inhibition, Treatm. 5 min
[12] = 10 min treatment, read-out: IC50 of DPPH• inhibition, Treatm. 10 min

Compound | IC50 [1, 11] [µM] | IC50 [1, 12] [µM] | IC50 [2] [µM] | IC50 [3] [µM] | IC50 [4] [µM] | IC50 [5] [µM] | IC50 [6] [µM] | IC50 [7] [µM] | IC50 [8] [µM] | melting point [°C] | IC50 (WI-38 (lung fibroblasts)) [µM] | IC50 [9] [µM] | antiproliferative / cytotoxic effect on the tested cell lines (in words) [10]
O=C1O[C@H]([C@@H](O)Cn2ccnn2)C(O)=C1O [Compound 4b, 6-deoxy-6-(1,2,3-triazol-1-yl)-L-ascorbic acid] | 130 | 130 | > 100 | > 100 | > 100 | > 100 | > 100 | > 100 | > 100 | 219 to 221 | > 100 | – | not cytotoxic
COc1ccc(-c2cn(C[C@H](O)[C@H]3OC(=O)C(O)=C3O)nn2)cc1 [Compound 4g, 6-deoxy-6-[4-methoxyphenyl-1,2,3-triazol-1-yl]-L-ascorbic acid] | 190 ± 10 | 190 ± 10 | > 100 | > 100 | > 100 | > 100 | > 100 | > 100 | > 100 | – | > 100 | > 100 | did not show any cytotoxic effects
Cc1ccc(-c2cn(C[C@H](O)[C@H]3OC(=O)C(O)=C3O)nn2)cc1 [Compound 4f, 6-deoxy-6-[4-tolyl-1,2,3-triazol-1-yl]-L-ascorbic acid] | 200 ± 20 | 140 ± 10 | > 100 | > 100 | > 100 | > 100 | > 100 | > 100 | > 100 | 152 to 154 | > 100 | 69.3 | did not show any cytotoxic effects

The next compounds have a lower IC50 [2] than those just listed; values first:

IC50 [1, 11] [µM] | IC50 [1, 12] [µM] | IC50 [2] [µM] | IC50 [3] [µM] | IC50 [4] [µM] | IC50 [5] [µM] | IC50 [6] [µM] | IC50 [7] [µM] | IC50 [8] [µM] | melting point [°C] | Compound | IC50 (WI-38 (lung fibroblasts)) [µM] | IC50 [9] [µM] | antiproliferative / cytotoxic effect on the tested cell lines (in words) [10]
270 ± 10 | 270 | 81.7 | 75.8 | 64.8 | 56.8 | 95.3 | 39.8 | 92 | 189 to 191 | O=C1O[C@H]([C@@H](O)Cn2cc(-c3cc(F)cc(F)c3)nn2)C(O)=C1O [Compound 4d, 6-deoxy-6-[4-(3,5-difluorophenyl)-1,2,3-triazol-1-yl]-L-ascorbic acid] | > 100 | 0.12 | nonspecific cytostatic effect
– | – | 51.6 | 41.6 | 19.9 | 31.8 | 40.1 | 14.7 | 41.3 | – | NC(=O)c1nnn(Cc2cc(Cl)c(C(=O)c3ccc(Cl)cc3)c(Cl)c2)c1N [Carboxyamidotriazole, carboxyamidotriazole, reference compound] | – | 32.6 | non-selective, moderate antiproliferative effect
